According to US12364696B2, “Treatment of autoimmune disease” (priority 2019, dated 2025):
Like-named read-outs stand apart in the source and are kept apart here.

Columns and labels:
[1] = oral tofacitinib; cited from earlier work
[2] = test system: patients with lichen planopilaris and frontal fibrosing alopecia; conditions: for Patient-reported response: ceased treatment
[3] = test system: patients with moderate to severe, treatment-resistant alopecia areata; conditions: for Mean change from baseline in Assessment of Quality of Life-8D (AQoL-8D) score at Week 28: n = 13; for Mean change from baseline in Alopecia Areata Symptom Impact Scale (AASIS) score at Week 28 - Global Symptom Impact Score / Mean change from baseline in Alopecia Areata Symptom Impact Scale (AASIS) score at Week 28 - Scalp Hair Loss Score: n = 14
[4] = test system: male patients with alopecia areata of the beard (BAA)
[5] = sublingual, 5 mg tablets, 3 months
[6] = sublingual, 5 mg tablets, 3 months, n = 16
[7] = sublingual, listed as sublingual tofacitinib
[8] = BAA subtype multiple patches, % of n = 45
[9] = BAA subtype solitary patch, % of n = 45
[10] = BAA subtype total beard loss, % of n = 45
[11] = all patients, n = 45 (21 oral, 24 sublingual)
[12] = degree of scalp hair regrowth Complete
[13] = degree of scalp hair regrowth Complete, % of n = 45
[14] = degree of scalp hair regrowth None
[15] = degree of scalp hair regrowth None, % of n = 45
[16] = degree of scalp hair regrowth Partial
[17] = degree of scalp hair regrowth Partial, % of n = 45

## C[C@@H]1CCN(C(=O)CC#N)C[C@@H]1N(C)c1ncnc2[nH]ccc12 [tofacitinib]
[1]
  Reported elimination half-life: 3 h
[2]; Patient 1
  Side effects: No side effects
[2]; Patient 1, sublingual 5-10 mg daily, July 2019 to February 2020, with concurrent medications
  Activity of lichen planopilaris: controlled
[2]; Patient 2
  Side effects: No side effects
[2]; Patient 2, up to 5 mg in the morning and 2.5 mg at night, with concurrent medications
  Symptoms of lichen planopilaris: symptom-free
[2]; Patient 3, lichen planopilaris, 2 mg twice daily increased to 7.5 mg
  Patient-reported response: not happy with the response
[2]; Patient 4, lichen planopilaris/frontal fibrosing alopecia, 2.5 mg twice daily for 12 months
  Patient-reported response: not happy with the response
[2]; series of case studies, sublingual
  Effect on symptoms of lichen planopilaris and frontal fibrosing alopecia: demonstrated activity at reducing the symptoms
[3]; human, in vivo
  Changes in blood biochemistry: no clinically significant changes
  Serious adverse events: no serious adverse events
  Withdrawals secondary to adverse events: no withdrawals secondary to adverse events
[3]; [5]
  Good grade respondents (50-75%), proportion: 1/16
  High grade respondents (75-100%), proportion: 1/16
  Low grade respondents (15-29% reduction in SALT score at Week 28), proportion: 3/16
  Mean reduction in SALT score of the two patients who achieved >50% reduction: 60.3%
  Medium grade respondents (30-49%), proportion: 1/16
  Participants achieving at least 1 grade improvement in eyebrow assessment scale at Week 28, proportion: 8/16
  Participants achieving at least 1 grade improvement in eyelash assessment scale at Week 28, proportion: 6/16
  Participants who achieved a 100% reduction in SALT score at Week 28: No participants
  Patients who achieved a >50% reduction in SALT score: 12.5%
[3]; [6]
  Mean reduction from baseline (Week 16) of SALT score at Week 28: 15.57%
  Participants achieving at least 1 grade improvement in eyebrow assessment scale at Week 28, percentage: 50%
  Participants achieving at least 1 grade improvement in eyelash assessment scale at Week 28, percentage: 37.5%
[3]; sublingual, 5 mg tablets, 3 months, n = 16, listed as sublingual tofacitinib
  Participants achieving at least 1 grade improvement in eyebrow assessment scale at Week 28, percentage: (50%)
[3]; sublingual, 5 mg tablets, Week 28 vs Week 16
  Total Treatment Response, proportion: 6/16
[3]; sublingual, 5 mg tablets, Week 28 vs Week 16, n = 16, listed as Sublingual tofacitinib
  Total Treatment Response, percentage: 37.5%
[3]; sublingual
  Mean change from baseline in Assessment of Quality of Life-8D (AQoL-8D) score at Week 28: 0.0148
  Mean change from baseline in Alopecia Areata Symptom Impact Scale (AASIS) score at Week 28 - Global Symptom Impact Score: 0.1306
  Mean change from baseline in Alopecia Areata Symptom Impact Scale (AASIS) score at Week 28 - Scalp Hair Loss Score: 2.2142
[3]; [7]
  Mean change from baseline in Assessment of Quality of Life-8D (AQoL-8D) score at Week 28: −0.0148
  Mean change from baseline in Alopecia Areata Symptom Impact Scale (AASIS) score at Week 28 - Global Symptom Impact Score: −0.1306
  Mean change from baseline in Alopecia Areata Symptom Impact Scale (AASIS) score at Week 28 - Scalp Hair Loss Score: −2.2142
[4]; 10 complete beard responders
  Duration of treatment after which complete beard regrowth was achieved (mean): 16.0 months
  Duration of treatment after which complete beard regrowth was achieved (range): 5.0-28.0 months
  Men with complete beard regrowth who also achieved complete scalp hair regrowth: 60%
[4]; BAA subtype multiple patches
  Degree of beard regrowth Complete, number of patients: 7
  Degree of beard regrowth None, number of patients: 8
  Degree of beard regrowth Partial, number of patients: 9
[4]; [8]
  Degree of beard regrowth Complete, % of patients: 15.6%
  Degree of beard regrowth None, % of patients: 17.8%
  Degree of beard regrowth Partial, % of patients: 20.0%
[4]; BAA subtype solitary patch
  Degree of beard regrowth Complete, number of patients: 0
  Degree of beard regrowth None, number of patients: 2
  Degree of beard regrowth Partial, number of patients: 0
[4]; [9]
  Degree of beard regrowth Complete, % of patients: 0.0%
  Degree of beard regrowth None, % of patients: 4.5%
  Degree of beard regrowth Partial, % of patients: 0.0%
[4]; BAA subtype total beard loss
  Degree of beard regrowth Complete, number of patients: 3
  Degree of beard regrowth None, number of patients: 6
  Degree of beard regrowth Partial, number of patients: 10
[4]; [10]
  Degree of beard regrowth Complete, % of patients: 6.7%
  Degree of beard regrowth None, % of patients: 13.3%
  Degree of beard regrowth Partial, % of patients: 22.2%
[4]; [11]
  Degree of beard regrowth Complete, % of patients: 22.2%
  Degree of beard regrowth Complete, number of patients: Ten
  Degree of beard regrowth None, % of patients: 35.6%
  Degree of beard regrowth None, number of patients: 16
  Degree of beard regrowth Partial, % of patients: 42.2%
  Degree of beard regrowth Partial, number of patients: 19
[4]; all patients, n = 45 (21 oral, 24 sublingual), listed as oral tofacitinib
  Degree of beard regrowth Complete, number of patients: 10
[4]; [12]
  Degree of beard regrowth Complete, number of patients: 6
  Degree of beard regrowth None, number of patients: 0
  Degree of beard regrowth Partial, number of patients: 1
[4]; [13]
  Degree of beard regrowth Complete, % of patients: 13.3%
  Degree of beard regrowth None, % of patients: 0.0%
  Degree of beard regrowth Partial, % of patients: 2.2%
[4]; [14]
  Degree of beard regrowth Complete, number of patients: 1
  Degree of beard regrowth None, number of patients: 14
  Degree of beard regrowth Partial, number of patients: 3
[4]; [15]
  Degree of beard regrowth Complete, % of patients: 2.2%
  Degree of beard regrowth None, % of patients: 31.1%
  Degree of beard regrowth Partial, % of patients: 6.7%
[4]; [16]
  Degree of beard regrowth Complete, number of patients: 3
  Degree of beard regrowth None, number of patients: 2
  Degree of beard regrowth Partial, number of patients: 15
[4]; [17]
  Degree of beard regrowth Complete, % of patients: 6.7%
  Degree of beard regrowth None, % of patients: 4.5%
  Degree of beard regrowth Partial, % of patients: 33.3%
[4]; n = 45, oral or sublingual
  Patients with mild adverse events (upper respiratory infections, elevated liver transaminases, fatigue, acne): 10
  Serious adverse events: no serious adverse events
[4]; n = 45, oral or sublingual, pre-tofacitinib 62.0 ± 38.9
  SALT score post-tofacitinib, Mean ± SD: 41.7 ± 38.5
[4]; n = 45, oral or sublingual, pre-tofacitinib 69.0 (2.0-100.0)
  SALT score post-tofacitinib, Median (Range): 29.0 (0.0-100.0)
[4]; oral, N = 21, beard
  Complete response, number of patients: 0
  No response, number of patients: 9
  Partial response, number of patients: 12
[4]; sublingual, n = 24, beard
  Complete response, number of patients: 10
  No response, number of patients: 7
  Partial response, number of patients: 7
